According to US11584710B2, “Compounds for treating infections” (HORITZONTS TECNOLOGICS HUNGARY KORLÁTOLT FELELOSSÉGU …, priority 2017, dated 2023):

What follows are compounds tested on C. lusitaniae (assay: Antifungal disk diffusion susceptibility test (CLSI M44)). Conditions: Clavispora lusitaniae; C. lusitaniae; 150 μg/disc.
Assay type: cell-based
Method: (§1) Filamentous fungi and yeasts strains, from clinical origin, were supplied by Microbiology Service from The Princess Hospital, Madrid. They are detailed in Table IX.
(§2) Filamentous fungi and yeast cells suspensions in distilled water was prepared from a culture of 24-48 h, depending on species, in Sabouraud agar. Each suspension was adjusted to a fixed size inoculum of 1-5×10^8 CFU/ml with a spectrophotometer (Ferraro, MJ National Committee for Clinical Laboratory Standards. 2000).
(§3) Antifungal susceptibility tests were developed following the standardized methodology detailed in document CLSI: M44-4: Method for Antifungal Disk diffusion susceptibility testing of yeasts consisting of disk diffusion on agar Muller-Hinton (supplemented with 2% glucose).

Row | SMILES | zone of inhibition at 150 µg/disc
1 | NNC(=O)C(=O)NNc1ccc(Cl)cc1 [MSG-214] | 42 mm
2 | NNC(=O)C(=O)NNc1ccc(F)cc1 [MSG-193] | 15 mm
3 | NNC(=O)CC(=O)NNc1ccccc1 [MSG-187] | < 10 mm

Same assay, conditions: Clavispora lusitaniae; C. lusitaniae; 500 μg/disc

Row | SMILES | zone of inhibition at 500 µg/disc
4 | NNC(=O)C(=O)NNc1ccc(Cl)cc1 [MSG-214] | > 40 mm
5 | NNC(=O)C(=O)NNc1ccc(F)cc1 [MSG-193] | > 40 mm
6 | NNC(=O)CC(=O)NNc1ccccc1 [MSG-187] | 20 mm

Each compound was assayed on A. niger in the same assay as above. Conditions: Aspergillus niger; A. niger; 150 μg/disc.
Assay type: cell-based
Method: as §1, §2, §3

Row | SMILES | zone of inhibition at 150 µg/disc
7 | NNC(=O)C(=O)NNc1ccc(Cl)cc1 [MSG-214] | 10 mm
8 | NNC(=O)C(=O)NNc1ccc(F)cc1 [MSG-193] | 15 mm
9 | NNC(=O)CC(=O)NNc1ccccc1 [MSG-187] | < 10 mm

Same assay, conditions: Aspergillus niger; A. niger; 500 μg/disc

Row | SMILES | zone of inhibition at 500 µg/disc
10 | NNC(=O)C(=O)NNc1ccc(Cl)cc1 [MSG-214] | > 40 mm
11 | NNC(=O)C(=O)NNc1ccc(F)cc1 [MSG-193] | > 40 mm
12 | NNC(=O)CC(=O)NNc1ccccc1 [MSG-187] | 40 mm

The compounds below were run on A. flavus in the same assay as above. Conditions: Aspergillus flavus; A. flavus; 150 μg/disc.
Assay type: cell-based
Method: as §1, §2, §3

Row | SMILES | zone of inhibition at 150 µg/disc
13 | NNC(=O)C(=O)NNc1ccc(Cl)cc1 [MSG-214] | < 10 mm
14 | NNC(=O)C(=O)NNc1ccc(F)cc1 [MSG-193] | 15 mm
15 | NNC(=O)CC(=O)NNc1ccccc1 [MSG-187] | < 10 mm

Same assay, conditions: Aspergillus flavus; A. flavus; 500 μg/disc

Row | SMILES | zone of inhibition at 500 µg/disc
16 | NNC(=O)C(=O)NNc1ccc(Cl)cc1 [MSG-214] | < 10 mm
17 | NNC(=O)C(=O)NNc1ccc(F)cc1 [MSG-193] | > 40 mm
18 | NNC(=O)CC(=O)NNc1ccccc1 [MSG-187] | 36 mm

The compounds below were run on A. terreus in the same assay as above. Conditions: Aspergillus terreus; A. terreus; 150 μg/disc.
Assay type: cell-based
Method: as §1, §2, §3

Row | SMILES | zone of inhibition at 150 µg/disc
19 | NNC(=O)C(=O)NNc1ccc(Cl)cc1 [MSG-214] | < 10 mm
20 | NNC(=O)C(=O)NNc1ccc(F)cc1 [MSG-193] | 12 mm
21 | NNC(=O)CC(=O)NNc1ccccc1 [MSG-187] | < 10 mm

Same assay, conditions: Aspergillus terreus; A. terreus; 500 μg/disc

Row | SMILES | zone of inhibition at 500 µg/disc
22 | NNC(=O)C(=O)NNc1ccc(Cl)cc1 [MSG-214] | 17 mm
23 | NNC(=O)C(=O)NNc1ccc(F)cc1 [MSG-193] | 32 mm
24 | NNC(=O)CC(=O)NNc1ccccc1 [MSG-187] | < 10 mm

These compounds were tested on S. cerevisiae in the same assay as above. Conditions: Saccharomyces cerevisiae; S. cerevisiae; 150 μg/disc.
Assay type: cell-based
Method: as §1, §2, §3

Row | SMILES | zone of inhibition at 150 µg/disc
25 | NNC(=O)C(=O)NNc1ccc(Cl)cc1 [MSG-214] | 15 mm
26 | NNC(=O)C(=O)NNc1ccc(F)cc1 [MSG-193] | 22 mm
27 | NNC(=O)CC(=O)NNc1ccccc1 [MSG-187] | < 10 mm

Same assay, conditions: Saccharomyces cerevisiae; S. cerevisiae; 500 μg/disc

Row | SMILES | zone of inhibition at 500 µg/disc
28 | NNC(=O)C(=O)NNc1ccc(Cl)cc1 [MSG-214] | 32 mm
29 | NNC(=O)C(=O)NNc1ccc(F)cc1 [MSG-193] | 40 mm
30 | NNC(=O)CC(=O)NNc1ccccc1 [MSG-187] | < 10 mm

What follows are compounds tested on A. fumigatus in the same assay as above. Conditions: Aspergillus fumigatus; A. fumigatus; 150 μg/disc.
Assay type: cell-based
Method: as §1, §2, §3

Row | SMILES | zone of inhibition at 150 µg/disc
31 | NNC(=O)C(=O)NNc1ccc(Cl)cc1 [MSG-214] | < 10 mm
32 | NNC(=O)C(=O)NNc1ccc(F)cc1 [MSG-193] | 20 mm
33 | NNC(=O)CC(=O)NNc1ccccc1 [MSG-187] | < 10 mm

Same assay, conditions: Aspergillus fumigatus; A. fumigatus; 500 μg/disc

Row | SMILES | zone of inhibition at 500 µg/disc
34 | NNC(=O)C(=O)NNc1ccc(Cl)cc1 [MSG-214] | 16 mm
35 | NNC(=O)C(=O)NNc1ccc(F)cc1 [MSG-193] | > 40 mm
36 | NNC(=O)CC(=O)NNc1ccccc1 [MSG-187] | 32 mm

The compounds below were run on C. guillermondii in the same assay as above. Conditions: C. guillermondii; 150 μg/disc.
Assay type: cell-based
Method: as §1, §2, §3

Row | SMILES | zone of inhibition at 150 µg/disc
37 | NNC(=O)C(=O)NNc1ccc(Cl)cc1 [MSG-214] | 15 mm
38 | NNC(=O)C(=O)NNc1ccc(F)cc1 [MSG-193] | 20 mm
39 | NNC(=O)CC(=O)NNc1ccccc1 [MSG-187] | < 10 mm

Same assay, conditions: C. guillermondii; 500 μg/disc

Row | SMILES | zone of inhibition at 500 µg/disc
40 | NNC(=O)C(=O)NNc1ccc(Cl)cc1 [MSG-214] | > 40 mm
41 | NNC(=O)C(=O)NNc1ccc(F)cc1 [MSG-193] | 40 mm
42 | NNC(=O)CC(=O)NNc1ccccc1 [MSG-187] | 22 mm

Each compound was assayed on C. tropicalis in the same assay as above. Conditions: Candida tropicalis; C. tropicalis; 150 μg/disc.
Assay type: cell-based
Method: as §1, §2, §3

Row | SMILES | zone of inhibition at 150 µg/disc
43 | NNC(=O)C(=O)NNc1ccc(Cl)cc1 [MSG-214] | 34 mm
44 | NNC(=O)C(=O)NNc1ccc(F)cc1 [MSG-193] | 30 mm
45 | NNC(=O)CC(=O)NNc1ccccc1 [MSG-187] | < 10 mm

Same assay, conditions: Candida tropicalis; C. tropicalis; 500 μg/disc

Row | SMILES | zone of inhibition at 500 µg/disc
46 | NNC(=O)C(=O)NNc1ccc(Cl)cc1 [MSG-214] | > 40 mm
47 | NNC(=O)C(=O)NNc1ccc(F)cc1 [MSG-193] | > 40 mm
48 | NNC(=O)CC(=O)NNc1ccccc1 [MSG-187] | 18 mm

What follows are compounds tested on C. albicans in the same assay as above. Conditions: Candida albicans; C. albicans; 150 μg/disc.
Assay type: cell-based
Method: as §1, §2, §3

Row | SMILES | zone of inhibition at 150 µg/disc
49 | NNC(=O)C(=O)NNc1ccc(Cl)cc1 [MSG-214] | 40 mm
50 | NNC(=O)C(=O)NNc1ccc(F)cc1 [MSG-193] | 20 mm
51 | NNC(=O)CC(=O)NNc1ccccc1 [MSG-187] | < 10 mm

Same assay, conditions: Candida albicans; C. albicans; 500 μg/disc

Row | SMILES | zone of inhibition at 500 µg/disc
52 | NNC(=O)C(=O)NNc1ccc(Cl)cc1 [MSG-214] | > 40 mm
53 | NNC(=O)C(=O)NNc1ccc(F)cc1 [MSG-193] | > 40 mm
54 | NNC(=O)CC(=O)NNc1ccccc1 [MSG-187] | 22 mm

These compounds were tested on C. parapsilosis in the same assay as above. Conditions: Lodderomyces parapsilosis; C. parapsilosis; 150 μg/disc.
Assay type: cell-based
Method: as §1, §2, §3

Row | SMILES | zone of inhibition at 150 µg/disc
55 | NNC(=O)C(=O)NNc1ccc(Cl)cc1 [MSG-214] | 15 mm
56 | NNC(=O)C(=O)NNc1ccc(F)cc1 [MSG-193] | 18 mm
57 | NNC(=O)CC(=O)NNc1ccccc1 [MSG-187] | < 10 mm

Same assay, conditions: Lodderomyces parapsilosis; C. parapsilosis; 500 μg/disc

Row | SMILES | zone of inhibition at 500 µg/disc
58 | NNC(=O)C(=O)NNc1ccc(Cl)cc1 [MSG-214] | > 40 mm
59 | NNC(=O)C(=O)NNc1ccc(F)cc1 [MSG-193] | > 40 mm
60 | NNC(=O)CC(=O)NNc1ccccc1 [MSG-187] | 17 mm

Each compound was assayed on T. pulmonis (assay: Kirby-Bauer disk diffusion susceptibility test). Conditions: 300 μg/disc.
Assay type: cell-based
Method: (§4) Bacterial strains, from clinical origin, were supplied by the National Center for Microbiology, Institute of Health Carlos III (Majadahonda, Madrid). They are detailed in Table 1.
(§5) Bacterial cells suspension in sterile saline was prepared from a culture of 24-72 h, depending on bacterial species, in Mueller-Hinton Agar with 5% sheep blood. Each suspension was adjusted to a fixed size inoculum of 1-5×10^8 CFU/ml with a spectrophotometer (Ferraro, MJ National Committee for Clinical Laboratory Standards. 2000).
(§6) Kirby-Bauer disk diffusion susceptibility test protocol was utilized to determine the sensitivity or resistance of pathogenic bacteria against the compounds and others antibiotics. The absence of growth around the disks is an indirect measure of the ability of this compound to inhibit an organism (Kirby, W., et al., Antibiotics Annu. 1956-1957:892). After 18 to 72 hours of incubation at 37° C., with or without CO2, under aerobic or anaerobic conditions, depending on the bacterial species, halo of growth inhibition were obtained and evaluated.
(§7) Interpretation of susceptibility and resistance was based on the presence or absence of a zone of inhibition surrounding the disk. Kirby-Bauer disk diffusion susceptibility test is a common method which uses antibiotic-impregnated wafers to test whether bacteria are affected by antibiotics. The size of the zone of inhibition depends on how effective the antibiotic is at stopping the growth of the bacterium. A stronger antibiotic will create a larger zone, because a lower concentration of the antibiotic is enough to stop growth.
(§8) All compounds were tested at 300 μg/disc.

Row | SMILES | Activity detected (mm)
61 | NNC(=O)C(=O)NNc1ccc(Cl)cc1 [MSG-214] | 30 mm

The compounds below were run on N. carnea (assay: Kirby-Bauer disk diffusion susceptibility test). Conditions: 300 μg/disc.
Assay type: cell-based
Method: as §4, §5, §6, §7, §8

Row | SMILES | Activity detected (mm)
62 | NNC(=O)C(=O)NNc1ccc(Cl)cc1 [MSG-214] | 14 mm

These compounds were tested on A. baumannii (assay: Kirby-Bauer disk diffusion susceptibility test). Conditions: 300 μg/disc.
Assay type: cell-based
Method: as §4, §5, §6, §7, §8

Row | SMILES | Activity detected (mm)
63 | NNC(=O)C(=O)NNc1ccc(Cl)cc1 [MSG-214] | 12 mm

What follows are compounds tested on S. pneumoniae (assay: Kirby-Bauer disk diffusion susceptibility test). Conditions: 300 μg/disc.
Assay type: cell-based
Method: as §4, §5, §6, §7, §8

Row | SMILES | Activity detected (mm)
64 | NNC(=O)C(=O)NNc1ccc(Cl)cc1 [MSG-214] | 11 mm

What follows are compounds tested on N. cyriacigeorgica (assay: Kirby-Bauer disk diffusion susceptibility test). Conditions: 300 μg/disc.
Assay type: cell-based
Method: as §4, §5, §6, §7, §8

Row | SMILES | Activity detected (mm)
65 | NNC(=O)C(=O)NNc1ccc(Cl)cc1 [MSG-214] | 25 mm
